Common to all, as to type: in vivo
In series [1] the test system is Bile Acid Itch Model in Male C57BL/6 Mice. The series is described as follows: Bile acid (deoxycholic acid) induced itch model (Example 9). The following applies: 10 mg/kg oral gavage 90 min before deoxycholic acid (25 μg). As to the method:
In order to assess the antipruritic effect of PF-06372865 in another clinically relevant disease, the bile acid induced itch model is used. In the bile acid induced itch model, the fur at the base of the neck is shaved, and mice are placed in individual cylinders on a glass shelf. Mice are acclimatized to the experimental room, restraint apparatus and investigators for 2-hour periods on 2 successive days before experiments. The mice are dosed with 10 mg/kg PF-06372865 by oral gavage ninety (90) minutes before they are injected with deoxycholic acid. Deoxycholic acid (25 μg in DMSO), is administered by intradermal injection at the nape of the neck. Scratching behavior is quantified by 2 observers unaware of tested agents. A scratch is defined as lifting the hind limb to the injection site and then a placing of the paw on the floor, regardless of the number of strokes. If counts differed by greater than 5 scratches over a 30-minute period, both observers reevaluate the records. The number of scratching bouts directed to the nape of the neck between 15 to 210 min after injection are recorded.

Series [2] has as its system Oxazolone-Induced Dermatitis Model in male C57BL/6 mice. The series is described as follows: Repeat dose Oxazolone-Induced Dermatitis Model (Example 10). The method, then:
Male C57BL/6 Mice (8-10 weeks) are used in the study. Mice are housed one per cage and are maintained at controlled environmental conditions with 12-h light and dark cycles. The temperature and humidity of the room are maintained between 22±3° C. and 55±5%, respectively. The maximum and minimum temperature and relative humidity in the experimental rooms are recorded once daily.
NCT10004 phosphate (adjusted with salt correction factor) is weighed into a clean glass container. 0.5% Methyl Cellulose (MC) is added, and the resulting mixture is mixed well using mild vortexing and stirred for 40 minutes to provide a homogeneous suspension.
PF-06372865 is weighed into a clean mortar. […]
Animals are dosed with respective treatment groups for fourteen consecutive Days (From Day 17-Day 30). To quantify any changes in the severity of skin lesions, Animals are assigned dermatitis scores prior to dosing and daily there after starting from Day 17 and ending on Day 30.
Skin lesion are observed and scored as follows: Hemorrhage/erythema, dryness/scaling and hyperplasia are scored as 0 (none), 1 (mild), 2 (moderate) or 3 (severe) once per day resulting in a composite score between 0 and 9. […]
Animals are observed by an observer blind to the treatment group for a period of 210 minutes post Oxazolone application. Number of scratching bouts directed to the nape between 15 to 210 min after dosing are recorded. […]

Series [3] concerns Dry Itch Model in Male C57BL/6 Mice. The series is described as follows: Dry skin itch model (Example 8). Conditions: 10 mg/kg intraperitoneal; 15 to 210 min after injection. The method, then: In order to assess the antipruritic effect of PF-06372865 in another clinically relevant disease, the dry skin model of dermatitis is used. In the dry skin model, mice are treated with a mixture of acetone and diethylether (1:1) on the shaved nape of the neck for 15 s, followed by distilled water for 30 sec, twice daily for 10 days. On the day of the experiment, mice received intraperitoneal injection of vehicle or PF-06372865 (10 mg/kg). The number of scratching bouts directed to the nape of the neck between 15 to 210 min after injection are recorded.

The test system of series [4] is Histamine-Induced Itch Model in Male C57BL/6 Mice. The series is described as follows: Histamine-Induced Itch Model (Example 3). Conditions: oral gavage 90 min before 100 μg histamine cheek injection; 1, 3, 10, 30 and 100 mg/kg. The method, then:
PF-06372865 (an alpha 2, alpha 3, and alpha 5 agonist; and an alpha 1 antagonist) is assessed for its antipruritic effects against a cheek injection of 100 μg histamine in wild-type C57BL/6 mice. The mice are dosed with PF-06372865 by oral gavage ninety (90) minutes before histamine injection. Doses of PF-06372865 are vehicle, 1, 3, 10, 30 and 100 mg/kg.

The next series concerns Male C57BL/6 Mice. The series is described as follows: Sedation, behavioral change and clinical signs observed in Example 1. As to the method: Animals were dosed per oral with respective treatment group using a dose volume of 10 ml/kg. Times of dosing were recorded. Immediately after compound treatment, animals were kept in an empty transparent chamber (23 cm length×17 cm width) for acclimatization and observation.
Ninety (90) minutes post compound dosing, 50-μl of chloroquine phosphate solution (a 200-μg dose) was injected intracutaneously into the animal's right cheek. Animals were returned to the same chamber for observation. Animals were observed by an observer blind to the treatment group for a period of 30 minutes post chloroquine injection. Total number of bouts of scratching directed at the ipsilateral cheek were recorded for 30 minutes.

Series [5] deals with Non-Histamine-Induced Itch Model in Male C57BL/6 Mice. The series is described as follows: Non-Histamine (chloroquine)-Induced Itch Model (Example 5). The following applies: oral gavage 90 min before chloroquine; 1, 3, 10, 30 and 100 mg/kg. The method, then:
The mice are dosed with PF-06372865 by oral gavage ninety (90) minutes before chloroquine injection. Doses of PF-06372865 are 1, 3, 10, 30 and 100 mg/kg.

Consider one compound from patent US11571421B2, “GABAA positive allosteric modulator compounds for treatment of itch and/or dermatitis” (NeuroCycle Therapeutics, Inc., priority 2018, dated 2023).

Take `CCn1cnc2c(-c3ccc(F)c(-c4ccc(S(=O)(=O)CC)cc4OC)c3)cnnc21` [PF-06372865]: the “scratching bouts compared to vehicle injection” value in series [1] and in series [3] was “significant reduction in scratching bouts” throughout. In addition, in series [2] (1 mg/kg BID PO, Day 17-Day 30), the “skin lesions (lesion score)” value is given as “decreases skin lesions comparable to the NCT10004”. The scratching bouts entry in series [2] (1 mg/kg PO, 15-210 minutes) was “reduces scratching bouts”. The “scratching bouts, histaminergic itch” value in series [4] is recorded as “dose-dependent reduction of scratching bouts”. Also, the sedation result in the series with Male C57BL/6 Mice (3 mg/kg PO) was “Minimal sedation”; with Male C57BL/6 Mice (at 10 mg/kg and 30 mg/kg PO), “Dose dependent increase in sedation”. Moreover, the “other behavioral change or clinical sign” value in the series on Male C57BL/6 Mice (any of the PF-06372865 treatment groups (0.3-30 mg/kg PO)) is reported as “No other behavioral change or clinical sign were observed”. In addition, the “scratching bouts, chloroquine-induced itch” value in series [5] is “dose-dependent reduction of scratching bouts”.
